Results taken from BigSolDB 2.1.

COc1cnc(Cl)nc1Cl
Settings	solubility (mole fraction)
in acetone, 297.35 K	0.348
in acetone, 299.36 K	0.368
in acetone, 301.17 K	0.386
in acetone, 303.13 K	0.403
in acetone, 304.54 K	0.42
in acetone, 306.18 K	0.436
in acetone, 307.53 K	0.45
in acetone, 308.97 K	0.466
in acetone, 310.25 K	0.481
in acetone, 311.37 K	0.492
in ethanol, 299.44 K	0.0474
in ethanol, 301.27 K	0.0527
in ethanol, 303.17 K	0.0584
in ethanol, 305.17 K	0.0655
in ethanol, 307.06 K	0.0745
in ethanol, 309.05 K	0.0855
in ethanol, 310.73 K	0.0972
in ethanol, 312.58 K	0.11
in ethanol, 314 K	0.125
in ethanol, 315.47 K	0.141
in ethanol, 316.61 K	0.158
in ethyl acetate, 295.6 K	0.288
in ethyl acetate, 296.53 K	0.295
in ethyl acetate, 298.25 K	0.311
in ethyl acetate, 300.66 K	0.33
in ethyl acetate, 302.28 K	0.347
in ethyl acetate, 304.15 K	0.364
in ethyl acetate, 305.62 K	0.382
in ethyl acetate, 307.47 K	0.401
in ethyl acetate, 309.19 K	0.422
in ethyl acetate, 311.16 K	0.444
in ethyl acetate, 313.07 K	0.468
in ethyl acetate, 314.57 K	0.49
in ethyl acetate, 316.39 K	0.513
in methanol, 302.37 K	0.0598
in methanol, 303.78 K	0.0659
in methanol, 305.44 K	0.0734
in methanol, 306.57 K	0.0803
in methanol, 308.12 K	0.0893
in methanol, 309.67 K	0.102
in methanol, 311.15 K	0.114
in methanol, 312.43 K	0.13
in methanol, 313.55 K	0.146
in methanol, 314.81 K	0.163
in methanol, 315.8 K	0.181
in methanol, 316.95 K	0.202
in n-heptane, 298.1 K	0.0094
in n-heptane, 299.83 K	0.0104
in n-heptane, 302.1 K	0.0116
in n-heptane, 303.81 K	0.0129
in n-heptane, 305.72 K	0.0141
in n-heptane, 307.55 K	0.0157
in n-heptane, 309.57 K	0.0174
in n-heptane, 310.97 K	0.0192
in n-heptane, 312.89 K	0.0214
in n-heptane, 315.04 K	0.0239
in n-heptane, 317.15 K	0.0268
in n-heptane, 318.83 K	0.0296
in n-heptane, 320.08 K	0.0324
in tetrachloromethane, 298.6 K	0.123
in tetrachloromethane, 299.42 K	0.13
in tetrachloromethane, 300.63 K	0.143
in tetrachloromethane, 301.97 K	0.159
in tetrachloromethane, 303.35 K	0.178
in tetrachloromethane, 304.82 K	0.196
in tetrachloromethane, 305.8 K	0.214
in tetrachloromethane, 306.87 K	0.237
in tetrachloromethane, 308.2 K	0.261
in tetrachloromethane, 309.57 K	0.288
in tetrachloromethane, 310.9 K	0.315
in tetrachloromethane, 312.15 K	0.343
